Results from patent publication US10576082B2, “ErbB2 regulates autophagic flux to modulate the proteostasis of APP-CTFs in alzheimer's disease” (Academia Sinica, priority 2016, dated 2020).

Columns and labels:
[1] = system: IMR32 neuroblastoma cells overexpressing C99-YFP; assay: Western blotting of IMR32 cells overexpressing C99-YFP; type: cell-based, human; details: compound 1 μM, 37° C., 24 h
Experimental: (A) IMR32 cells overexpressing C99-YFP were grown with 2 ml fresh culture medium in 6-well plates, and treated with 1 μM CL-387,785 or DAPT at 37° C. for 24 h. The cell extracts were analyzed by Western blotting. (B) Conditional media were harvested and processed for determination of secreted Aβ40 using a colorimetric Aβ40-specific ELISA kit. (C) C99-YFP-expressing IMR32 cells (160,000 cells/well) were seeded onto 6-well plates and cultured at 37° C. for 24 h, and infected with ErbB1- or ErbB2-targeting shRNA lentivirus for an additional 48 h. Infection mixtures were replaced with 2 ml fresh culture medium, and infected cells were then incubated at 37° C. for an additional 24 h. The cell extracts were analyzed by Western blotting with anti-GFP antibody. (D) The conditioned media were harvested and processed for determination of secreted Aβ40. Data are the mean±SD from three independent experiments, and were analyzed by Student's t-tests. * p<0.05. […]
Preparation of cell extracts. […] Following the removal of cell debris by centrifugation, clarified lysates were processed for immunoprecipitation, Western blotting, or quantification of BCA protein content.
Western blotting analysis. Protein concentration was measured with the BCA Protein Assay Kit (Pierce). […] Quantitative analyses of blot images were processed using Image J software (NIH) to determine the relative densities of immunoreactive bands.

[2] = system: HEK293 cells overexpressing C99-YFP; assay: Secreted Aβ40 ELISA, conditional media of HEK293 cells overexpressing C99-YFP; type: cell-based; details: 1 μM, 37° C., 24 h
Experimental: Clarified lysates containing equivalent amounts of proteins were analyzed by Western blotting. (B, C) HEK293 overexpressing CFP-LC3 cells were infected with lentivirus encoding shRNA targeting LacZ ErbB2, or ErbB2 plus ATG5 for 48 h. The autophagy induction was analyzed by fluorescence confocal microscopy. The number of CFP-LC3 puncta per cell was quantified. The levels of LC3-I, LC3-II, and GAPDH were analyzed by Western blotting. (D, E) HEK293 cells overexpressing ErbB1, ErbB2, CFP-tagged C99, and YFP-tagged NΔE were infected with lentivirus encoding shRNA targeting LacZ (Ctrl), ErbB1, or ErbB2 for 48 h. […] The levels of LC3-1, LC3-II, and p62 were analyzed by Western blotting and quantified by NIH Image J. Conditional media were harvested and processed for determination of secreted Aβ40 using a colourimetric Aβ40-specific ELISA kit. […] The quantitative data are shown as mean±SD from three independent experiments, and were analyzed by Student's t-tests. * p<0.05.
Cell-based γ-secretase assays for the nuclear function of AICD or NICD. […] Cellular luminescence was determined by the addition of Steady-Glo Luciferase Assay reagents (PROMEGA™), according to the manufacturer's instructions. […] The level of secreted Aβ40 was quantified using a human Aβ40 sandwich ELISA kit (Invitrogen) according to the manufacturer's instructions.

With `CC#CC(=O)Nc1ccc2ncnc(Nc3cccc(Br)c3)c2c1` [CL-387,785, N-[4-[(3-bromophenyl)amino]-6-quinazolinyl]-2-butynamide] the “level of AICD” value [1] was “significantly reduced”, the “level of C99” value [1] was “significantly reduced” and the “secreted Aβ40 production” value [2] was “effectively decreased”.
